{
  "source": "patent US9968582B2",
  "about": "“Use of a benzoate containing composition in urea cycle disorders and neurodegenerative disorders” (Rush University Medical Center, priority 2014, dated 2018)",
  "key": {"male C57/BL6 mice": {"tested_on": "male C57/BL6 mice", "assay": "Chronic EAE (MOG35-55), clinical symptoms", "format": "in vivo", "conditions": "chronic model, FIG. 1C", "procedure": "C57BL/6 mice were immunized with 100 μg of MOG35-55 as described above. Mice also received two doses of pertussis toxin (150 ng/mouse) on 0 and 2 dpi.\nGTB was mixed in 0.5% methylcellulose (MC) and EAE mice were gavaged 100 μL GTB-mixed MC once daily using gavage needle. Therefore, control EAE mice received only MC as vehicle.\nWhile female SJL/J mice are used to induce RR-EAE, chronic form of EAE is modeled in male C57/BL6 mice upon immunization with MOG35-55. Therefore, the inventor examined the efficacy of GTB in suppressing the disease process of chronic EAE."}, "[1]": {"tested_on": "dopamine (DA) in the striata", "assay": "MPTP mouse model of PD, HPLC of striatal dopamine", "format": "in vivo, mice", "conditions": "FIG. 10", "procedure": "Six- to eight-week old C57BL/6 mice were purchased from Harlan (Indianapolis, Ind.). For acute MPTP intoxication, mice received four intraperitoneal (i.p.) injections of MPTP-HCl (18 mg/kg of free base; Sigma Chemical Co., St. Louis, Mo.) in saline at 2-h intervals. Control animals received only saline.\nGTB was mixed in 0.5% methylcellulose (MC) and from 3 h after the last injection of MPTP, mice were gavaged 100 μL GTB-mixed MC once daily using gavage needle. Therefore, control MPTP mice received only MC as vehicle.\nStriatal level of dopamine was quantified in Complete Stand-Alone HPLC-ECD System EiCOMHTEC-500 (JM Science Inc., Grand Island, N.Y.). Briefly, mice were sacrificed by cervical dislocation after 7 days of MPTP intoxication and their striata were collected and immediately frozen in dry ice and stored at −80° C. until analysis. On the day of the analysis, tissues were sonicated in 0.2M perchloric acid containing isoproterenol and resulting homogenates were centrifuged at 20,000×g for 15 min at 4 C. After pH adjustment and filtration, 10 μl of supernatant was injected onto an Eicompak SC-3ODS column (Complete Stand-Alone HPLC-ECD System EiCOMHTEC-500 from JM Science Inc., Grand Island, N.Y.) and analyzed following the manufacturer's protocol.\nNext, to determine whether GTB protects against biochemical deficits caused by MPTP, the inventor quantified levels of dopamine (DA) in the striata 7 days after the MPTP treatment. As evident from FIG. 10, MPTP intoxication led to about 75% decrease in striatal DA compared to striata of saline-injected control mice."}, "[2]": {"tested_on": "myelin basic protein (MBP)", "assay": "Myelin gene mRNA expression in spinal cord of EAE mice: MBP", "format": "in vivo", "conditions": "FIG. 5C-E", "procedure": "Total RNA was isolated from splenic T cells and spinal cord by using the RNeasy mini kit (Qiagen, Valencia, Calif.) and from spleen and cerebellum by using the Ultraspec-II RNA reagent (Biotecx laboratories, Inc, Houston, Tex.) following manufacturer's protocol. To remove any contaminating genomic DNA, total RNA was digested with DNase. Semi-quantitative RT-PCR was carried out using a RT-PCR kit from Clonetech (Mountain View, Calif.). Briefly, 1 μg of total RNA was reverse transcribed using oligo(dT)12-18 as primer and MMLV reverse transcriptase (Clontech) in a 20 μL reaction mixture. […]\n(§1) The relative expression of each gene with respect to GAPDH was measured after scanning the bands with a Fluor Chem 8800 Imaging System (Alpha Innotech, San Leandro, Calif.).\nReal-time PCR analysis was performed using the ABI-Prism7700 sequence detection system (Applied Biosystems, Foster City, Calif.). […] Data were processed by the ABI Sequence Detection System 1.6 software and analyzed by ANOVA.\nDemyelination is the most important pathological feature in MS, which is also modeled in EAE animals. […] To confirm this finding, the inventor monitored the expression of […] myelin genes, myelin basic protein (MBP) and proteolipid protein (PLP), and observed a marked loss of mRNA expression of these genes in the spinal cord of untreated EAE mice compared to control mice (FIG. 5C-E)."}, "[3]": {"tested_on": "female PLP-TCR transgenic (Tg) mice", "assay": "Relapsing EAE in PLP-TCR transgenic mice, clinical symptoms", "format": "in vivo", "conditions": "FIG. 1B"}, "spinal cord of EAE mice": {"tested_on": "spinal cord of EAE mice", "assay": "H&E histology, infiltration of inflammatory cells and cuffed vessels in spinal cord of EAE mice", "format": "in vivo", "conditions": "GTB from 8 dpt, sacrificed 16 dpt", "text": "On 14 dpi (first chronic phase), five mice from each of the following groups (control, EAE, EAE+GTB, and EAE+vehicle) were anesthetized. After perfusion with phosphate buffered saline (PBS) (pH 7.4) and then with 4% (w/v) paraformaldehyde solution in PBS, cerebellum and whole spinal cord was dissected out from each mouse. The tissues were further fixed and then divided into halves: one-half was used for histological staining whereas the other half was used for myelin staining. For histological analysis, routine histology was performed to obtain perivascular cuffing and morphological details of CNS tissues of EAE mice. Paraformaldehyde-fixed tissues were embedded in paraffin, and serial sections (4 μm) were cut. Sections were stained with conventional H&E staining method. Digital images were collected under bright-field setting using an ×40 objective. Slides were assessed in a blinded fashion by three examiners for inflammation in different anatomical compartments (meninges and parenchyma). Inflammation was scored using the following scale as described: for meninges and parenchyma: 0, no infiltrating cells; 1, few infiltrating cells; 2, numerous infiltrating cells; and 3, widespread infiltration. For vessels: 0, no cuffed vessel; 1, one or two cuffed vessels per section; 2, three to five cuffed vessels per section and 3, more than five cuffed vessels per section. At least six serial sections of each spinal cord from each of five mice per group were scored and statistically analyzed by ANOVA.\nInfiltration of autoreactive T cells and associated mononuclear cells is a hallmark of EAE as well as MS. The inventor examined whether GTB treatment attenuated infiltration and inflammation in adoptively-transferred EAE mice. Mice receiving GTB from 8 dpt (onset of the acute phase) were sacrificed on 16 dpt. […] In contrast, vehicle was unable to inhibit the infiltration of inflammatory cells (FIG. 4A)."}, "iNOS": {"tested_on": "iNOS", "assay": "Expression of iNOS in spinal cord of EAE mice (RT-PCR)", "format": "in vivo", "conditions": "FIG. 4D-F", "procedure": "Total RNA was isolated from splenic T cells and spinal cord by using the RNeasy mini kit (Qiagen, Valencia, Calif.) and from spleen and cerebellum by using the Ultraspec-II RNA reagent (Biotecx laboratories, Inc, Houston, Tex.) following manufacturer's protocol. To remove any contaminating genomic DNA, total RNA was digested with DNase. Semi-quantitative RT-PCR was carried out using a RT-PCR kit from Clonetech (Mountain View, Calif.). Briefly, 1 μg of total RNA was reverse transcribed using oligo(dT)12-18 as primer and MMLV reverse transcriptase (Clontech) in a 20 μL reaction mixture. The resulting cDNA was appropriately-diluted, and diluted cDNA was amplified using Titanium Taq DNA polymerase and following primers. Amplified products were electrophoresed on a 1.8% agarose gels and visualized by ethidium bromide staining.\nas §1\nReal-time PCR analysis was performed using the ABI-Prism7700 sequence detection system (Applied Biosystems, Foster City, Calif.). […] Data were processed by the ABI Sequence Detection System 1.6 software and analyzed by ANOVA. […]"}},
  "data": [
    {"smiles": "O=C(OCC(COC(=O)c1ccccc1)OC(=O)c1ccccc1)c1ccccc1", "note": "[GTB, glyceryl tribenzoate]", "values": [
      {"measurement": "clinical symptoms of EAE", "setting": "male C57/BL6 mice", "value": "strongly inhibited the clinical symptoms"},
      {"measurement": "decrease in striatal dopamine", "setting": "[1]; GTB 50 mg/kg body wt/d in MPTP-intoxicated mice, MPTP alone about 75% decrease", "value": 25, "unit": "%"},
      {"measurement": "dopamine in the striatum", "setting": "[1]; GTB in MPTP-intoxicated mice, 7 days after MPTP", "value": "dose-dependently protected dopamine"},
      {"measurement": "MBP mRNA expression in the spinal cord", "setting": "[2]", "value": "significant restoration of myelin gene mRNA expression"},
      {"measurement": "dose of maximum inhibition of EAE", "setting": "[3]; GTB from 8 dpi", "value": 50, "unit": "mg/kg body wt/d"},
      {"measurement": "clinical symptoms (mean clinical score)", "setting": "[3]; different doses of GTB from 8 dpi, 10 μg/mouse PLP139-151", "value": "inhibitory effect of GTB on the clinical symptoms was clearly observed"},
      {"measurement": "infiltration of inflammatory cells into the spinal cord (H&E)", "setting": "spinal cord of EAE mice; FIG. 4A", "value": "markedly inhibited the infiltration of inflammatory cells"},
      {"measurement": "quantitation of infiltration", "setting": "spinal cord of EAE mice; FIG. 4B", "value": "dramatically reduced infiltration"},
      {"measurement": "appearance of cuffed vessels", "setting": "spinal cord of EAE mice; FIG. 4C", "value": "dramatically reduced"},
      {"measurement": "expression of iNOS in the spinal cord", "setting": "iNOS", "value": "dramatically reduced the expression"}
    ]}
  ]
}
